Measured values: ChEMBL document CHEMBL1128824 (Bioorg Med Chem Lett, 1995)

Tests used:
[1] = target: T1, Protein kinase C eta type (Homo sapiens, UniProt P24723); assay: Inhibition of Protein kinase C eta expressed in Sf-9 cells
[2] = organism: Homo sapiens; assay: Compound was tested for inhibition of phorbol-induced superoxide generation in human neutrophils using neutrophil assay; type: functional
[3] = target: T2, Protein kinase C beta type (Homo sapiens, UniProt P05771); assay: Inhibition of Protein kinase C beta 2 expressed in Sf-9 cells
T2 sequence (P05771 whole entry): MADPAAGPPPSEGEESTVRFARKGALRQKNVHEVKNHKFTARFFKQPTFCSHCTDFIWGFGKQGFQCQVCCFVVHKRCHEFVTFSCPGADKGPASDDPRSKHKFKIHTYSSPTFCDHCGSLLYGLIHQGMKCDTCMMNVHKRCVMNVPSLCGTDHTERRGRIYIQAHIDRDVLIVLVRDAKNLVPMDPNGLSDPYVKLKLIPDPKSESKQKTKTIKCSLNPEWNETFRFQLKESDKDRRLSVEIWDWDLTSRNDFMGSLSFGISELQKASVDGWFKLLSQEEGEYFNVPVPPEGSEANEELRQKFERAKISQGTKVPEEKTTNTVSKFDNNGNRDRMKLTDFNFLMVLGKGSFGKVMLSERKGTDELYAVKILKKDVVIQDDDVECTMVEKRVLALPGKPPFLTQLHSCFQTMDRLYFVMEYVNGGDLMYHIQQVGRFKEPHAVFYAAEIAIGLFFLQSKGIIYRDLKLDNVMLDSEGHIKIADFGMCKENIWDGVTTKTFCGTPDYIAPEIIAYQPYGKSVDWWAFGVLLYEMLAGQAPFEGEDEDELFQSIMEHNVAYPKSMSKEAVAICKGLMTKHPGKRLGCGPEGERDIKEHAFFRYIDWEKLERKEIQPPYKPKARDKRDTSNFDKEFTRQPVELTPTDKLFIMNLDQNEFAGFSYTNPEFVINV

[4] = target: T3, Protein kinase C alpha type (Homo sapiens, UniProt P17252); assay: Inhibition of Protein kinase C alpha expressed in Sf-9 cells
[5] = target: T4, Protein kinase C delta type (Homo sapiens, UniProt Q05655); assay: Inhibition of Protein kinase C delta expressed in Sf-9 cells
T4 sequence (Q05655 whole entry): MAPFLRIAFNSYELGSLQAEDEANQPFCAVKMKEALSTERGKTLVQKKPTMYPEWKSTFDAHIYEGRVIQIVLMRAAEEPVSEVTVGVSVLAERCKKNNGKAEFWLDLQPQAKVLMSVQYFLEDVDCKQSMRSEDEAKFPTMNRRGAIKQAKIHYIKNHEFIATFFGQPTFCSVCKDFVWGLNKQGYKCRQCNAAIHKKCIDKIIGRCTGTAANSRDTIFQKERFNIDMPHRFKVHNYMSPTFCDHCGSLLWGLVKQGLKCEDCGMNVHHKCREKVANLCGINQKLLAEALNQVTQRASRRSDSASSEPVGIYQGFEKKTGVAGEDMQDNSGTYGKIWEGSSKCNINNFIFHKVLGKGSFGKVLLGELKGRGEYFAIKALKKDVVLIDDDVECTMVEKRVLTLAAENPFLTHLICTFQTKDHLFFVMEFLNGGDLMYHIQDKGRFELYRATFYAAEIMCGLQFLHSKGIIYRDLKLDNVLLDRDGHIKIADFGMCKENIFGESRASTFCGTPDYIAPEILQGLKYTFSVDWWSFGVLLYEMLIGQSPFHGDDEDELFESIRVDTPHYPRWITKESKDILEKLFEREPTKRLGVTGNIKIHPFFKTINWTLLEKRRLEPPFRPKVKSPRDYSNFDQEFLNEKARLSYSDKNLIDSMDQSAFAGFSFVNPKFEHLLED

[6] = target: T5, Protein kinase C epsilon type (Homo sapiens, UniProt Q02156); assay: Inhibition of protein kinase C epsilon expressed in Sf-9 cells
T5 sequence (Q02156 whole entry): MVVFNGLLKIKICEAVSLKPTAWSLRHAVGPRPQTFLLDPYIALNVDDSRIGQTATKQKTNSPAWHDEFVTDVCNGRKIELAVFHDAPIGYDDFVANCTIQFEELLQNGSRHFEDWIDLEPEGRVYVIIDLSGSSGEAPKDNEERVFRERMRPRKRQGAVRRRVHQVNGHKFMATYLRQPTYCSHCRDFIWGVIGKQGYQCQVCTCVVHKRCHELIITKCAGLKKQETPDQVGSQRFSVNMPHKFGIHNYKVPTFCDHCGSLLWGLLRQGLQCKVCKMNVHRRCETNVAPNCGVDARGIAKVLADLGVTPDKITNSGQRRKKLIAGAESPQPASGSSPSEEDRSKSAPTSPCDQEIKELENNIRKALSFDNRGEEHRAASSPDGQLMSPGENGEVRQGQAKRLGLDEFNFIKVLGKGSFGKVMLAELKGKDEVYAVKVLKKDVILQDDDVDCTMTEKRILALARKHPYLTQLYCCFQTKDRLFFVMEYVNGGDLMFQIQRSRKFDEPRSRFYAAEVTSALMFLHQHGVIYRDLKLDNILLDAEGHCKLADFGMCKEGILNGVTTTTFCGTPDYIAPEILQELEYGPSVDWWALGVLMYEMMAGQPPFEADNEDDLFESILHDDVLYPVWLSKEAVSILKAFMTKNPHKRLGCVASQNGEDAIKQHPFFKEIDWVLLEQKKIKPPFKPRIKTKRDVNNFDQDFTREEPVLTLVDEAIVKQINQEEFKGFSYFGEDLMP

[7] = organism: Homo sapiens; assay: Compound was tested for inhibition of phorbol-induced superoxide generation in human neutrophils after 1 hr pre-incubation at 4 degree C using neutrophil assay; value ranges from 2.8-10; type: functional
[8] = organism: Homo sapiens; assay: Compound was tested for inhibition of phorbol-induced superoxide generation in human neutrophils after 1 hr pre-incubation at 4 degree C using neutrophil assay; type: functional
[9] = target: T2, Protein kinase C beta type; assay: Inhibition of Protein kinase C beta 2 expressed in Sf-9 cells (inactive)
[10] = target: T4, Protein kinase C delta type; assay: Inhibition of Protein kinase C delta expressed in Sf-9 cells (inactive)
[11] = target: T3, Protein kinase C alpha type; assay: Inhibition of Protein kinase C alpha expressed in Sf-9 cells (inactive)
[12] = organism: Homo sapiens; assay: Compound was tested for inhibition of phorbol-induced superoxide generation in human neutrophils using neutrophil assay; value ranges from […]-[…]; type: functional
[13] = organism: Homo sapiens; assay: Compound was tested for inhibition of phorbol-induced superoxide generation in human neutrophils after 1 hr pre-incubation at 4 degree C using neutrophil assay; value ranges from 0.33-0.85; type: functional
[14] = target: T5, Protein kinase C epsilon type; assay: Inhibition of protein kinase C epsilon expressed in Sf-9 cells (inactive)
[15] = target: T1, Protein kinase C eta type; assay: Inhibition of Protein kinase C eta expressed in Sf-9 cells (inactive)
[16] = organism: Homo sapiens; assay: Compound was tested for inhibition of phorbol-induced superoxide generation in human neutrophils using neutrophil assay; value ranges from 0.8-2.1; type: functional
[17] = organism: Homo sapiens; assay: cells; type: functional, organism-based

T1 sequence (P24723 whole entry): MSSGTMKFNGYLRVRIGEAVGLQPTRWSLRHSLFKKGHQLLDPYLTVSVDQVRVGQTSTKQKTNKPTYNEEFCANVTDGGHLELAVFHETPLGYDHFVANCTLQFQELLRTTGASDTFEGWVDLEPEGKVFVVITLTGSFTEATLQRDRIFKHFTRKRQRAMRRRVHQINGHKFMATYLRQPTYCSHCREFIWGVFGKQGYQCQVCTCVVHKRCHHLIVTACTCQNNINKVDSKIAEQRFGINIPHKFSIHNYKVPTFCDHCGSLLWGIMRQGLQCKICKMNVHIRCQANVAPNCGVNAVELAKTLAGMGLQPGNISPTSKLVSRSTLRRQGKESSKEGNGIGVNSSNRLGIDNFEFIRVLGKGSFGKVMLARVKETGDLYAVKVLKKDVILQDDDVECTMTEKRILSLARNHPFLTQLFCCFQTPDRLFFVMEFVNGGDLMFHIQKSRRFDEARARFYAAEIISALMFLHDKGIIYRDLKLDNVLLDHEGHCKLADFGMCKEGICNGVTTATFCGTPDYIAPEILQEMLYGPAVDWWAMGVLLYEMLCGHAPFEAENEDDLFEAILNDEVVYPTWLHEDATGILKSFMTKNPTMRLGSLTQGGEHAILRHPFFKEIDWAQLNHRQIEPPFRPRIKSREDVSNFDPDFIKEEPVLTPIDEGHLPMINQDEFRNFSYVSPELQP

Row | Structure (SMILES) | IC50 [1] | IC50 ([2]; Homo sapiens) | IC50 [3] | IC50 [4] | IC50 [5] | IC50 [6] | also measured
1 | O=C(N[C@@H]1CNC[C@H]1OC(=O)c1cc(O)c(C(=O)c2c(O)cccc2C(=O)OCC2CCCCC2)c(O)c1)c1ccc(O)cc1 | 50 nM | > 10000 nM | 22000 nM | 17000 nM | 310 nM | 25000 nM | 
2 | CC(C)OC(=O)c1cccc(O)c1C(=O)c1c(O)cc(C(=O)O[C@@H]2CCC[C@H]2NC(=O)c2ccc(O)cc2)cc1O | 260 nM | > 10000 nM | 440 nM | 4700 nM | 50 nM | 13000 nM | 
3 | O=C(N[C@@H]1CCC[C@H]1OC(=O)c1cc(O)c(C(=O)c2c(O)cccc2C(=O)O)c(O)c1)c1ccc(O)cc1 |  |  |  |  |  |  | IC50 [8]: > 10000 nM
4 | O=C(N[C@@H]1CNC[C@H]1OC(=O)c1cc(O)c(C(=O)c2c(O)cccc2C(=O)O)c(O)c1)c1ccc(O)cc1 |  | > 50000 nM |  |  |  |  | 
5 | CCOC(=O)c1cccc(O)c1C(=O)c1c(O)cc(C(=O)O[C@@H]2CCC[C@H]2NC(=O)c2ccc(O)cc2)cc1O | 52 nM | > 2600 nM | 1600 nM | 920 nM | 67 nM | 660 nM | 
6 | CCCCOC(=O)c1cccc(O)c1C(=O)c1c(O)cc(C(=O)O[C@@H]2CNC[C@H]2NC(=O)c2ccc(O)cc2)cc1O | 40 nM | > 10000 nM | 2200 nM | 3100 nM | 80 nM | 3700 nM | 
7 | CC(C)(C)C(=O)OCOC(=O)c1cccc(O)c1C(=O)c1c(O)cc(C(=O)O[C@@H]2CCC[C@H]2NC(=O)c2ccc(O)cc2)cc1O |  |  |  |  |  |  | IC50 [9]: Not Active; IC50 [10]: Not Active; IC50 [11]: Not Active; IC50 [12]: > 3680 nM; IC50 [13]: > 330 nM; IC50 [14]: Not Active; IC50 [15]: Not Active
8 | COC(=O)c1cccc(O)c1C(=O)c1c(O)cc(C(=O)O[C@@H]2CCC[C@H]2NC(=O)c2ccc(O)cc2)cc1O (racemic) | 30 nM |  | 330 nM | 320 nM | 30 nM | 260 nM | IC50 [16]: > 800 nM; IC50 [17]: > 1720 nM
9 | COC(=O)c1cccc(O)c1C(=O)c1c(O)cc(C(=O)O[C@@H]2CCC[C@H]2NC(=O)c2ccc(O)cc2)cc1O (stereo in doubt; 8 (+)) | 400 nM |  | 1800 nM | 4200 nM | 250 nM | 20000 nM | IC50 [2]: > 10000 nM
10 | COC(=O)c1cccc(O)c1C(=O)c1c(O)cc(C(=O)O[C@@H]2CCC[C@H]2NC(=O)c2ccc(O)cc2)cc1O (stereo in doubt; 8 (-)) | 4 nM |  | 40 nM | 210 nM | 5 nM | 300 nM | IC50 [2]: > 1500 nM
11 | O=C(N[C@@H]1CNCCC[C@H]1OC(=O)c1cc(O)c(C(=O)c2c(O)cccc2C(=O)O)c(O)c1)c1ccc(O)cc1 [BALANOL] |  | > 10000 nM |  |  |  |  | 

Further lines, with some results ahead:

Row | IC50 [1] | IC50 ([2]; Homo sapiens) | IC50 [3] | IC50 [4] | IC50 [5] | IC50 [6] | Structure (SMILES) | also measured
12 | 4 nM |  | 20 nM | 160 nM | 10 nM | 34 nM | CC(C)(C)C(=O)OCOC(=O)c1cccc(O)c1C(=O)c1c(O)cc(C(=O)O[C@@H]2CNC[C@H]2NC(=O)c2ccc(O)cc2)cc1O | IC50 [7]: > 2800 nM
13 | 16 nM | > 50000 nM | 290 nM | 250 nM | 18 nM | 170 nM | COC(=O)c1cccc(O)c1C(=O)c1c(O)cc(C(=O)O[C@@H]2CNC[C@H]2NC(=O)c2ccc(O)cc2)cc1O | 
14 | 20 nM | > 10000 nM | 1000 nM | 2200 nM | 50 nM | 1300 nM | CCOC(=O)c1cccc(O)c1C(=O)c1c(O)cc(C(=O)O[C@@H]2CNC[C@H]2NC(=O)c2ccc(O)cc2)cc1O | 
15 | 14 nM |  | 20 nM | 130 nM | 24 nM | 130 nM | CC(=O)OCOC(=O)c1cccc(O)c1C(=O)c1c(O)cc(C(=O)O[C@@H]2CNC[C@H]2NC(=O)c2ccc(O)cc2)cc1O | IC50 [8]: > 10000 nM
16 | 50 nM | > 10000 nM | 20000 nM | 19000 nM | 200 nM | 3200 nM | CC(C)COC(=O)c1cccc(O)c1C(=O)c1c(O)cc(C(=O)O[C@@H]2CNC[C@H]2NC(=O)c2ccc(O)cc2)cc1O | 
